Results as given in PubChem BioAssay (NCI).
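Compound exposure: 48 hours, 5 concentrations, 96-well plates. GI50 is the concentration that inhibits growth by half. TGI: concentration producing complete growth inhibition.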

Legend:
Test in all cases: NCI tumour cell line growth inhibition, 48 h
[1] = system: UO-31 renal
[2] = system: HOP-62 NSCLC
[3] = system: XF 498 CNS
[4] = system: LXFL 529 NSCLC
[5] = system: M19-MEL melanoma
[6] = system: RXF-631 renal
[7] = system: DMS 273 small cell lung
[8] = system: KM20L2 colon
[9] = system: SNB-78 CNS
[10] = system: DLD-1 colon
[11] = system: DMS 114 small cell lung
[12] = system: P388 leukemia
[13] = system: SN12K1 renal
[14] = system: P388/ADR leukemia
[15] = system: HOP-18 NSCLC

CN(C)CCCSc1nc2ccccc2[nH]1
TGI [1]: > 100 µM | TGI [2]: > 100 µM

C1=NCCN2CCN(CCN=Cc3ccc(cc3)OCc3cccc(n3)COc3ccc1cc3)CC2
TGI [1]: > 50 µM | TGI [2]: > 50 µM

OC1(c2cccs2)c2cccc(Cl)c2C(O)(c2cccs2)c2c(Cl)cccc21 (configuration not stated)
TGI [1]: > 100 µM | TGI [2]: > 100 µM

CCOc1ccc(NC(=O)C(=O)CC(=O)c2sc(NNC(C)=O)nc2C)cc1
TGI [3]: > 100 µM | TGI [4]: > 100 µM | TGI [5]: > 100 µM | TGI [6]: > 100 µM | TGI [7]: > 100 µM | TGI [8]: > 100 µM | TGI [1]: > 100 µM | TGI [9]: > 100 µM | TGI [2]: > 100 µM | TGI [10]: > 100 µM

C[C@]12C=CC(=O)C=C1CC[C@@H]1[C@@H]2CC[C@]2(C)OC(=O)CC[C@@H]12
TGI [11]: > 500 µM | TGI [3]: 373 µM | TGI [12]: > 486 µM | TGI [4]: > 500 µM | TGI [6]: > 500 µM | TGI [13]: 498 µM | TGI [7]: > 500 µM | TGI [14]: 449 µM | TGI [8]: > 470 µM | TGI [1]: > 500 µM | TGI [9]: > 500 µM | TGI [2]: > 471 µM | TGI [15]: 232 µM | TGI [10]: > 500 µM

CCCCCCCCCCCCCCCCCCOc1ccccc1CC(=O)OCC[N+]1(C)CCCCC1
GI50 [1]: 4.14 µM | TGI [1]: 19.7 µM

Cc1ccc(S(=O)(=O)n2cc(-c3cc(C(F)(F)F)ccn3)c3cc(Br)ccc32)cc1
TGI [1]: 24.7 µM | TGI [2]: 29.5 µM

O=C(O)c1cc([N+](=O)[O-])cc2c(=O)c3cnccc3[nH]c12
TGI [1]: > 100 µM | TGI [2]: > 100 µM

CCOc1cc(NC(C)=O)ccc1C(=O)NN1C(=O)C(Cl)C1c1ccccc1 (configuration not stated)
TGI [1]: 14.9 µM | TGI [2]: 44.4 µM

O=C([O-])C[n+]1ccccc1
TGI [1]: > 100 µM | TGI [2]: > 100 µM

O=C(Nc1ccc(Cl)cc1)c1cc2cc(N=Nc3ccccc3Cl)ccc2oc1=O
TGI [11]: 25 µM | TGI [3]: 67.1 µM | TGI [4]: 32.5 µM | TGI [5]: 53 µM | TGI [8]: 46.8 µM | TGI [1]: 39.3 µM | TGI [9]: 79.7 µM | TGI [2]: 61.9 µM | TGI [15]: 96.9 µM | TGI [10]: 32.2 µM

CN1CCOC(c2ccc(Cl)cc2)O1 (configuration not stated)
TGI [1]: > 100 µM | TGI [2]: > 100 µM

NN(CC(=O)O)CC(=O)O
TGI [1]: > 100 µM | TGI [2]: > 100 µM

CN(CCCCCl)P(=O)(OCc1ccc([N+](=O)[O-])o1)OC[C@H]1O[C@@H](n2cc(F)c(=O)[nH]c2=O)C[C@@H]1O (some centres not stated)
TGI [1]: > 100 µM | TGI [2]: 25.6 µM

CCOC(=O)C1=C(C)OC2(O)C=CC(O)=C3C(=O)N(c4ccccc4)C(=O)C312 (configuration not stated)
TGI [1]: 65.4 µM | TGI [2]: > 100 µM

COc1cc2c(c(O)c1OC)-c1c(cc(OC)c(OC)c1OC)CC(C)C(C)C2 (configuration not stated)
TGI [1]: > 100 µM | TGI [2]: > 100 µM

Cn1c2ccccc2n2c(N=O)c(-c3ccccc3)nc12
TGI [1]: > 100 µM | TGI [2]: 27.6 µM

C=C1c2ccccc2C(=O)c2c1c1c(C(=O)OC)c(O)ccc1n2Cc1ccccc1
TGI [1]: 1.74 µM | TGI [2]: 1.53 µM

COCCOC(=O)c1c(C)n([O-])c2cc(Cl)c(Cl)cc2[n+]1=O
TGI [1]: 10.5 µM | TGI [2]: 35 µM

CN1CCc2[nH]c3ccccc3c2C1
TGI [11]: > 100 µM | TGI [3]: > 100 µM | TGI [5]: > 100 µM | TGI [13]: > 100 µM | TGI [7]: > 100 µM | TGI [8]: > 100 µM | TGI [1]: > 100 µM | TGI [9]: > 100 µM | TGI [2]: > 100 µM | TGI [15]: > 100 µM | TGI [10]: > 100 µM

COc1ccc2[nH]cc(CCNC(=O)[C@H](Cc3ccccc3)NC(=O)[C@@H](NCC(F)(F)F)C(C)C)c2c1
TGI [1]: 68.3 µM | TGI [2]: 36.2 µM

Nc1ncnc2nc[nH]c12
TGI [11]: > 250 µM | TGI [3]: 20.8 µM | TGI [12]: > 250 µM | TGI [5]: > 250 µM | TGI [13]: > 250 µM | TGI [7]: > 206 µM | TGI [14]: > 250 µM | TGI [8]: > 250 µM | TGI [1]: > 250 µM | TGI [9]: > 158 µM | TGI [2]: > 250 µM | TGI [15]: > 250 µM | TGI [10]: > 250 µM
